This note sets out measurements from patent US11998539B2, “Substituted aminoquinolones as DGKalpha inhibitors for immune activation” (Bayer Aktiengesellschaft, priority 2019, dated 2024).

Usually IC50 stands for the concentration that inhibits the measured activity by half.

Sequence of DGKα (P23743 other isoform, or with tags, fused parts or gaps): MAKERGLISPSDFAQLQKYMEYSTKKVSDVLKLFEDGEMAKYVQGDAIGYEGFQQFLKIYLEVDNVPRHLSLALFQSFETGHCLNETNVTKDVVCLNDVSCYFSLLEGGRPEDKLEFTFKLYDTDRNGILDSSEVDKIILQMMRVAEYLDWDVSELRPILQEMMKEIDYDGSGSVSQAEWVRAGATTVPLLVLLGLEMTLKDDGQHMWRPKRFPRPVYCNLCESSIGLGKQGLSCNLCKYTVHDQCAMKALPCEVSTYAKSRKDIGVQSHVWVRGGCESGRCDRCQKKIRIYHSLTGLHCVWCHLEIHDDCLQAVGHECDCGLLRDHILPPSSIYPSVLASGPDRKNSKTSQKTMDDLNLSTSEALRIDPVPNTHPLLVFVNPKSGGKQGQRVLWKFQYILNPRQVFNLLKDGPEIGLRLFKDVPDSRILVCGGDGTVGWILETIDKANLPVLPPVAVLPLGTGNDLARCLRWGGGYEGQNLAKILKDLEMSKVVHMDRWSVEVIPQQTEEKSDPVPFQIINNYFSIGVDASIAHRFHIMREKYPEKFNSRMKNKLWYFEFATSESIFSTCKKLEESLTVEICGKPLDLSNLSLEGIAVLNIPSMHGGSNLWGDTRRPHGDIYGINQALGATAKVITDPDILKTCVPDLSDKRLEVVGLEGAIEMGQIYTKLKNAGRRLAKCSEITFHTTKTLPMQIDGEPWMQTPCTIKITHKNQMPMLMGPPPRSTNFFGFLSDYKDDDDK

The target in this test is DGKα (Homo sapiens (Human), UniProt P23743). As to the kind of experiment: Human DGKα kinase activity inhibition assay (ADP-Glo). In kind it is biochemical. The conditions noted are these: recombinant full-length human DGKα, 55 μM ATP, 7 μM 1,2-dioleoyl-sn-glycerol, read-out: IC50 values of examples in in vitro human DGKa kinase activity inhibition assays. The essentials:
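Recombinant full-length human DGKα (C-terminal FLAG, from insect cells) phosphorylated 1,2-dioleoyl-sn-glycerol presented in octyl-glucopyranoside micelles. ADP formed was quantified by ADP-Glo luminescence. Compounds were added from 100-fold DMSO stocks.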
As to `Cn1c(=O)c(C#N)c(N2CCC(c3nc4ccccc4o3)CC2)c2ccc(C#N)cc21` [Example 275, 4-[4-(1,3-benzoxazol-2-yl)piperidin-1-yl]-1-methyl-2-oxo-1,2-dihydroquinoline-3,7-dicarbonitrile], the 50% inhibitory concentration (IC50) was 172 nM. The value for `Cn1c(=O)c(C#N)c(N2CCC(C)(c3nc4cc(S(C)(=O)=O)ccc4o3)CC2)c2ccccc21` [Example 25, 4-{4-[5-(methanesulfonyl)-1,3-benzoxazol-2-yl]-4-methylpiperidin-1-yl}-1-methyl-2-oxo-1,2-dihydroquinoline-3-carbonitrile] was 168 nM; that for `Cn1c(=O)c(C#N)c(N2CCC(c3nc4cc(Cl)ccc4s3)CC2)c2ccccc21` [Example 18, 4-[4-(5-chloro-1,3-benzothiazol-2-yl)piperidin-1-yl]-1-methyl-2-oxo-1,2-dihydroquinoline-3-carbonitrile] was 3.7 nM; that for `Cc1ccc2oc(C3CCN(c4c(C#N)c(=O)n(C)c5cc(OCC6CCOC6)c(Cl)cc45)CC3)nc2c1` (racemic) [Example 572, (rac)-6-chloro-1-methyl-4-[4-(5-methyl-1,3-benzoxazol-2-yl)piperidin-1-yl]-2-oxo-7-[(oxolan-3-yl)methoxy]-1,2-dihydroquinoline-3-carbonitrile] was 1.5 nM. `Cc1ccc2oc(C3CCN(c4c(C#N)c(=O)n(C)c5cc(O[C@@H]6CCOC6)c(Br)cc45)CC3)nc2c1` [Example 537, (−)-6-bromo-1-methyl-4-[4-(5-methyl-1,3-benzoxazol-2-yl)piperidin-1-yl]-2-oxo-7-{[(3R)-oxolan-3-yl]oxy}-1,2-dihydroquinoline-3-carbonitrile]: the IC50 worked out at 0.2 nM.

Consider `CCCc1noc(C2CCN(c3c(C#N)c(=O)n(C)c4ccccc34)CC2)n1` [Example 148, 1-methyl-2-oxo-4-[4-(3-propyl-1,2,4-oxadiazol-5-yl)piperidin-1-yl]-1,2-dihydroquinoline-3-carbonitrile], for which the IC50 came to 369 nM.

Turning to `Cn1c(=O)c(C#N)c(N2CCC(c3cc[nH]n3)CC2)c2ccccc21` [Example 322, 1-methyl-2-oxo-4-[4-(1H-pyrazol-3-yl)piperidin-1-yl]-1,2-dihydroquinoline-3-carbonitrile], the IC50 came to 239 nM.

For `Cc1cc2c(N3CCC(c4ccn(-c5ccccc5C)n4)CC3)c(C#N)c(=O)n(C)c2cc1Br` [Example 560, 7-bromo-1,6-dimethyl-4-{4-[1-(2-methylphenyl)-1H-pyrazol-3-yl]piperidin-1-yl}-2-oxo-1,2-dihydroquinoline-3-carbonitrile], the IC50 is 105 nM. For the compound `Cc1ccc2oc(C3(C)CCN(c4c(C#N)c(=O)n(C)c5ccc(S(C)(=O)=O)cc45)CC3)nc2c1` [Example 182, 6-(methanesulfonyl)-1-methyl-4-[4-methyl-4-(5-methyl-1,3-benzoxazol-2-yl)piperidin-1-yl]-2-oxo-1,2-dihydroquinoline-3-carbonitrile], the IC50 stood at 47 nM.

For the compound `Cn1c(=O)c(C(N)=O)c(N2CCC(c3nc(-c4ccccc4)no3)CC2)c2cc(Br)ccc21` [Example 523, 6-bromo-1-methyl-2-oxo-4-[4-(3-phenyl-1,2,4-oxadiazol-5-yl)piperidin-1-yl]-1,2-dihydroquinoline-3-carboxamide], the IC50 came out at 3.7 nM. The value for `Cc1ccc2oc(C3(C)CCN(c4c(C#N)c(=O)n(C)c5cc(C6COC6)ccc45)CC3)nc2c1` [Example 261, 1-methyl-4-[4-methyl-4-(5-methyl-1,3-benzoxazol-2-yl)piperidin-1-yl]-7-(oxetan-3-yl)-2-oxo-1,2-dihydroquinoline-3-carbonitrile] was 35 nM; that for `COc1ccc2c(N3CCC(c4nc5ccccc5o4)CC3)c(C#N)c(=O)n(C)c2c1` [Example 243, 4-[4-(1,3-benzoxazol-2-yl)piperidin-1-yl]-7-methoxy-1-methyl-2-oxo-1,2-dihydroquinoline-3-carbonitrile] was 3.5 nM.

With `Cc1ccc2c(c1)c(N1CCC(c3nc4ccccc4s3)CC1)c(C#N)c(=O)n2C` [Example 174, 4-[4-(1,3-benzothiazol-2-yl)piperidin-1-yl]-1,6-dimethyl-2-oxo-1,2-dihydroquinoline-3-carbonitrile], the IC50 was 1.7 nM.

With `Cc1ccc2oc(C3(C)CCN(c4c(C#N)c(=O)n(C)c5ccc(C6CC(F)(F)C6)cc45)CC3)nc2c1` [Example 209, 6-(3,3-difluorocyclobutyl)-1-methyl-4-[4-methyl-4-(5-methyl-1,3-benzoxazol-2-yl)piperidin-1-yl]-2-oxo-1,2-dihydroquinoline-3-carbonitrile], the IC50 was determined as 26 nM. For `Cn1c(=O)c(C#N)c(N2CCC(c3cccc(C(F)F)c3)CC2)c2ccccc21` [Example 87, 4-{4-[3-(difluoromethyl)phenyl]piperidin-1-yl}-1-methyl-2-oxo-1,2-dihydroquinoline-3-carbonitrile] the value was 7.1 nM; for `Cc1ccc2oc(C3CCN(c4c(C#N)c(=O)n(C)c5ccc(C6(C(F)(F)F)CC6)cc45)CC3)nc2c1` [Example 412, 1-methyl-4-[4-(5-methyl-1,3-benzoxazol-2-yl)piperidin-1-yl]-2-oxo-6-[1-(trifluoromethyl)cyclopropyl]-1,2-dihydroquinoline-3-carbonitrile], 21 nM; for `Cn1c(=O)c(C#N)c(N2CCC(c3ccc4c(c3)OC(C)(C)O4)CC2)c2ccccc21` [Example 360, 4-[4-(2,2-dimethyl-2H-1,3-benzodioxol-5-yl)piperidin-1-yl]-1-methyl-2-oxo-1,2-dihydroquinoline-3-carbonitrile], 1.2 nM.

Consider `Cn1c(=O)c(C(N)=O)c(N2CCC(c3nc4ccccc4o3)CC2)c2ccc(C(F)(F)F)cc21` [Example 308, 4-[4-(1,3-benzoxazol-2-yl)piperidin-1-yl]-1-methyl-2-oxo-7-(trifluoromethyl)-1,2-dihydroquinoline-3-carboxamide], for which the IC50 amounted to 6.4 nM. The value for `Cc1ccccc1-c1nnc(C2CCN(c3c(C(N)=O)c(=O)n(C)c4ccccc34)CC2)o1` [Example 461, 1-methyl-4-{4-[5-(2-methylphenyl)-1,3,4-oxadiazol-2-yl]piperidin-1-yl}-2-oxo-1,2-dihydroquinoline-3-carboxamide] was 77 nM; that for `Cc1ccccc1-c1nnc(C2CCN(c3c(C#N)c(=O)n(C)c4cc(O)ccc34)CC2)o1` [Example 444, 7-hydroxy-1-methyl-4-{4-[5-(2-methylphenyl)-1,3,4-oxadiazol-2-yl]piperidin-1-yl}-2-oxo-1,2-dihydroquinoline-3-carbonitrile] was 82 nM. The value for `Cc1ccc2oc(C3CCN(c4c(C(N)=O)c(=O)n(C)c5ccc(F)cc45)CC3)nc2c1` [Example 298, 6-fluoro-1-methyl-4-[4-(5-methyl-1,3-benzoxazol-2-yl)piperidin-1-yl]-2-oxo-1,2-dihydroquinoline-3-carboxamide] was 0.5 nM; that for `Cc1ccc2oc(C3CCN(c4c(C#N)c(=O)n(C)c5cc(C)ccc45)CC3)nc2c1` [Example 221, 1,7-dimethyl-4-[4-(5-methyl-1,3-benzoxazol-2-yl)piperidin-1-yl]-2-oxo-1,2-dihydroquinoline-3-carbonitrile] was 1.8 nM; that for `Cc1cc2c(N3CCC(c4ccn(-c5ccccc5C)n4)CC3)c(C#N)c(=O)n(C)c2cc1NCCO` [Example 561, 7-[(2-hydroxyethyl)amino]-1,6-dimethyl-4-{4-[1-(2-methylphenyl)-1H-pyrazol-3-yl]piperidin-1-yl}-2-oxo-1,2-dihydroquinoline-3-carbonitrile] was 1.4 nM. The value for `Cn1c(=O)c(C#N)c(N2CCC(c3ccc4c(c3)C3(CCC3)C(=O)N4)CC2)c2ccccc21` [Example 361, 1-methyl-2-oxo-4-[4-(2′-oxo-1′,2′-dihydrospiro[cyclobutane-1,3′-indol]-5′-yl)piperidin-1-yl]-1,2-dihydroquinoline-3-carbonitrile] was 27 nM; that for `Cc1ccc2c(c1)c(N1CCC(c3nc4ccc(Cl)cc4o3)CC1)c(C(N)=O)c(=O)n2C` [Example 202, 4-[4-(6-chloro-1,3-benzoxazol-2-yl)piperidin-1-yl]-1,6-dimethyl-2-oxo-1,2-dihydroquinoline-3-carboxamide] was 2.7 nM. As for `Cn1c(=O)c(C#N)c(N2CCC(c3ccc(C#N)cc3)CC2)c2ccccc21` [Example 86, 4-[4-(4-cyanophenyl)piperidin-1-yl]-1-methyl-2-oxo-1,2-dihydroquinoline-3-carbonitrile], the IC50 is 54 nM. Regarding `Cc1ccc2oc(C3(C)CCN(c4c(C#N)c(=O)n(C)c5cc(N6C[C@H](O)CC6=O)ccc45)CC3)nc2c1` [Example 269, 7-[(4R)-4-hydroxy-2-oxopyrrolidin-1-yl]-1-methyl-4-[4-methyl-4-(5-methyl-1,3-benzoxazol-2-yl)piperidin-1-yl]-2-oxo-1,2-dihydroquinoline-3-carbonitrile], the IC50 is 71 nM.

With `CCCOc1ccc2c(c1)c(N1CCC(C)(c3nc4cc(C)ccc4o3)CC1)c(C#N)c(=O)n2C` [Example 279, 1-methyl-4-[4-methyl-4-(5-methyl-1,3-benzoxazol-2-yl)piperidin-1-yl]-2-oxo-6-propoxy-1,2-dihydroquinoline-3-carbonitrile], the IC50 is 1280 nM. For `Cn1c(=O)c(C(N)=O)c(N2CCC(c3nc4ccccc4o3)CC2)c2ccc(F)cc21` [Example 305, 4-[4-(1,3-benzoxazol-2-yl)piperidin-1-yl]-7-fluoro-1-methyl-2-oxo-1,2-dihydroquinoline-3-carboxamide] the value was 4.5 nM; for `Cc1ccc2oc(C3(C)CCN(c4c(C#N)c(=O)n(C)c5ccc(OC6COC6)cc45)CC3)nc2c1` [Example 267, 1-methyl-4-[4-methyl-4-(5-methyl-1,3-benzoxazol-2-yl)piperidin-1-yl]-6-[(oxetan-3-yl)oxy]-2-oxo-1,2-dihydroquinoline-3-carbonitrile], 64 nM; for `CN1CCN(c2ccc(C3CCN(c4c(C#N)c(=O)n(C)c5ccccc45)CC3)cc2)C(=O)C1` [Example 66], 78 nM.
